From US10858335B2 (Rigel Pharmaceuticals, Inc., priority 2014, dated 2020)

tested on: GDF8 signaling (p-SMAD-3 (Ser423/425)); assay: AlphaScreen SureFire SMAD3 (p-Ser423/425) assay, GDF8-stimulated cells (GDF pSMAD); type: cell-based; details: Mus musculus, MPC-11, GDF8-stimulated pSMAD3, MPC11; tested as the salt form given; read-out: GDF pSMAD (MPC11) (μM), inhibition of GDF8 signaling

For `Nc1ncnc2ccc(-c3cccnc3-c3cccc(OC(F)F)c3)cc12` [compound 982, 6-(2-(3-(difluoromethoxy)phenyl)pyridin-3-yl)quinazolin-4-amine], which IC50 is on record?
Its IC50 is 0.0411 µM.

`Nc1ncnc2ccc(-c3cccnc3-c3cccc(OC4COC4)c3)cc12` [compound 1030, 6-(2-(3-(oxetan-3-yloxy)phenyl)pyridin-3-yl)quinazolin-4-amine] was tested. Which IC50 did it give?
Its IC50 is 1.14 µM.

With `Fc1cc(F)c(F)c(-c2ncccc2-c2ccc3ncsc3c2)c1` [compound 1055] as the compound, how does the IC50 read?
Its IC50 is 0.129 µM.

Which IC50 does the source give for `c1cnc(-c2ccc3occc3c2)c(-c2ccc3ncsc3c2)c1` [compound 1073] here?
The IC50 was 0.48 µM.

How did the IC50 turn out when `Cc1ccc(O)cc1-c1ncccc1-c1ccc2ncnc(N)c2c1` [compound 1005, 3-(3-(4-aminoquinazolin-6-yl)pyridin-2-yl)-4-methylphenol] was run?
Its IC50 is 5.45 µM.

same assay, conditions: Mus musculus, MPC-11, MPC11; GDF8-stimulated; p-SMAD3 AlphaScreen; read-out: GDF pSMAD (MPC11) (inhibition of GDF8 signaling)

With `Cc1cc(-c2ncccc2-c2ccc3ncc(C(=O)NC4CCN(C)CC4)n3c2)ccc1F` [compound 592, 6-(2-(4-Fluoro-3-methylphenyl)pyridin-3-yl)-N-(1-methylpiperidin-4-yl)imidazo[1,2-a]pyridine-3-carboxamide] as the compound, how does the IC50 read?
The IC50 was 0.205 µM.

With `Cc1cccc(-c2ncccc2-c2ccc3cn[nH]c3c2)c1` [Compound 102, 6-(2-m-Tolylpyridin-3-yl)-1H-indazole] as the compound, how does the IC50 read?
The IC50 was 0.341 µM.

For `CC(=O)NCCCNC(=O)c1cnc2ccc(-c3cccnc3-c3ccc(F)c(C)c3)cn12` [compound 816, N-(3-Acetamidopropyl)-6-(2-(4-fluoro-3-methylphenyl)pyridin-3-yl)imidazo[1,2-a]pyridine-3-carboxamide], which IC50 is on record?
The IC50 was 1.61 µM.

`CN(C)c1cnc2ccc(-c3cccnc3-c3cccc(C4CC4)c3)cn12` [compound 553, 6-(2-(3-Cyclopropylphenyl)pyridin-3-yl)-N,N-dimethylimidazo[1,2-a]pyridin-3-amine] was tested. Which IC50 did it give?
Its IC50 is 3.24 µM.

With `Nc1ncnc2ccc(-c3cccnc3-c3ccc(F)cc3Cl)cc12` [compound 499, 6-(2-(2-Chloro-4-fluorophenyl)pyridin-3-yl)quinazolin-4-amine] as the compound, how does the IC50 read?
Its IC50 is 6.52 µM.

For `FC(F)Oc1cccc(-c2ncccc2-c2ccc3nccnc3c2)c1` [compound 962, 6-(2-(3-(Difluoromethoxy)phenyl)pyridin-3-yl)quinoxaline], which IC50 is on record?
Its IC50 is 0.622 µM.

How did the IC50 turn out when `Cc1cc(-c2ncccc2-c2ccn3nccc3c2)ccc1F` [compound 756, 5-(2-(4-Fluoro-3-methylphenyl)pyridin-3-yl)pyrazolo[1,5-a]pyridine] was run?
Its IC50 is 0.364 µM.

For `Cc1cc(-c2ncccc2-c2ccc3cncn3c2)ccc1F` [compound 269, 6-(2-(4-Fluoro-3-methylphenyl)pyridin-3-yl)imidazo[1,5-a]pyridine], which IC50 is on record?
The IC50 was 1.38 µM.

For `Cc1cc(-c2ncccc2-c2ccc3ncc(C(=O)NCCCN4CCN(C)CC4)n3c2)ccc1F` [compound 591, 6-(2-(4-Fluoro-3-methylphenyl)pyridin-3-yl)-N-(3-(4-methylpiperazin-1-yl)propyl)imidazo[1,2-a]pyridine-3-carboxamide], which IC50 is on record?
Its IC50 is 0.333 µM.

With `COCCOc1cccc(-c2ncccc2-c2ccc3ncnc(N)c3c2)c1` [compound 482, 6-(2-(3-(2-Methoxyethoxy)phenyl)pyridin-3-yl)quinazolin-4-amine] as the compound, how does the IC50 read?
Its IC50 is 1.7 µM.

`Cc1cccc(-c2ncccc2-c2ccc3ncncc3c2)c1` [compound 364, 6-(2-(m-Tolyl)pyridin-3-yl)quinazoline] was tested. Which IC50 did it give?
The IC50 was 0.338 µM.

Which IC50 does the source give for `FC(F)(F)c1cccc(-c2ncccc2-c2ccc3ncc(N4CCCC4)n3c2)c1` [compound 564, 3-(Pyrrolidin-1-yl)-6-(2-(3-(trifluoromethyl)phenyl)pyridin-3-yl)imidazo[1,2-a]pyridine] here?
The IC50 was 18.4 µM.

For `Cc1cc(-c2ncccc2-c2ccn3ncc(C(=O)NCCCO)c3c2)ccc1F` [compound 706, 5-(2-(4-Fluoro-3-methylphenyl)pyridin-3-yl)-N-(3-hydroxypropyl)pyrazolo[1,5-a]pyridine-3-carboxamide], which IC50 is on record?
The IC50 was 0.228 µM.

How did the IC50 turn out when `COc1cc(NC(=O)n2ncc3cc(-c4cccnc4-c4ccc(F)c(C)c4)ccc32)cc(OC)c1OC` [compound 630, 5-(2-(4-Fluoro-3-methylphenyl)pyridin-3-yl)-N-(3,4,5-trimethoxyphenyl)-1H-indazole-1-carboxamide] was run?
The IC50 was 4.15 µM.

How did the IC50 turn out when `COc1cccc(-c2ncccc2-c2ccc3[nH]ncc3c2)c1` [Compound 117, 5-(2-(3-Methoxyphenyl)pyridin-3-yl)-1H-indazole] was run?
Its IC50 is 0.179 µM.

Which IC50 does the source give for `Nc1nc2ccc(-c3cccnc3-c3ccc(F)c(Cl)c3)nc2s1` [compound 302, 5-(2-(3-Chloro-4-fluorophenyl)pyridin-3-yl)thiazolo[5,4-b]pyridin-2-amine] here?
The IC50 was 0.795 µM.

Which IC50 does the source give for `Cc1cc(-c2ncccc2-c2ccc3nc[nH]c3c2)ccc1F` [Compound 177, 6-(2-(4-Fluoro-3-methylphenyl)pyridin-3-yl)-1H-benzo[d]imidazole] here?
The IC50 was 0.363 µM.

`Cc1c(Cl)cccc1-c1ncccc1-c1ccc2ncnn2c1` [compound 773, 6-(2-(3-Chloro-2-methylphenyl)pyridin-3-yl)-[1,2,4]triazolo[1,5-a]pyridine] was tested. Which IC50 did it give?
Its IC50 is 8.48 µM.

How did the IC50 turn out when `Fc1ccc(-c2ncccc2-c2ccc3[nH]ncc3c2)c(F)c1` [Compound 70, 5-[2-(2,4-Difluorophenyl)pyridin-3-yl]-1H-indazole] was run?
The IC50 was 5.7 µM.

With `Cc1cc(-c2ncccc2-c2ccn3ncc(C(=O)NCCN(C)C)c3c2)ccc1F` [compound 673, N-(2-(Dimethylamino)ethyl)-5-(2-(4-fluoro-3-methylphenyl)pyridin-3-yl)pyrazolo[1,5-a]pyridine-3-carboxamide] as the compound, how does the IC50 read?
The IC50 was 0.375 µM.

For `Cc1cc(-c2ncccc2-c2ccc3c(cnn3C)c2)ccc1F` [Compound 145, 5-(2-(4-Fluoro-3-methylphenyl)pyridin-3-yl)-1-methyl-1H-indazole], which IC50 is on record?
The IC50 was 1.13 µM.

Which IC50 does the source give for `c1cc(-c2ncccc2-c2ccn3nccc3n2)cc(C2CC2)c1` [compound 912, 5-(2-(3-Cyclopropylphenyl)pyridin-3-yl)pyrazolo[1,5-a]pyrimidine] here?
The IC50 was 0.112 µM.

For `Cc1cc(-c2ncccc2-c2ccc3c(cnn3C(=O)NCCN3CCCC3)c2)ccc1F` [compound 636, 5-(2-(4-Fluoro-3-methylphenyl)pyridin-3-yl)-N-(2-(pyrrolidin-1-yl)ethyl)-1H-indazole-1-carboxamide], which IC50 is on record?
Its IC50 is 8.69 µM.

`Clc1cccc(-c2ncccc2-c2ccc3nc[nH]c3c2)c1` [compound 783] was tested. Which IC50 did it give?
Its IC50 is 0.231 µM.

How did the IC50 turn out when `Cc1cc(-c2ncc(NCc3ccc(C(N)=O)cc3)cc2-c2ccc3nccnc3c2)ccc1F` [compound 307, 4-(((6-(4-Fluoro-3-methylphenyl)-5-(quinoxalin-6-yl)pyridin-3-yl)amino)methyl)benzamide] was run?
The IC50 was 2.22 µM.

How did the IC50 turn out when `Nc1cnc(-c2cccc(C3CC3)c2)c(-c2ccc3[nH]ncc3c2)c1` [Compound 15, 6-(3-Cyclopropylphenyl)-5-(1H-indazol-5-yl)pyridin-3-amine] was run?
Its IC50 is 0.0649 µM.

`Cc1cc(-c2ncc(NCc3ccc(N4CCC(O)CC4)cc3)cc2-c2ccc3ncsc3c2)ccc1F` [compound 374, 1-(4-(((5-(Benzo[d]thiazol-6-yl)-6-(4-fluoro-3-methylphenyl)pyridin-3-yl)amino)methyl)phenyl)piperidin-4-ol] was tested. Which IC50 did it give?
Its IC50 is 0.495 µM.

How did the IC50 turn out when `Fc1ccc(-c2ncccc2-c2ccc3ncnc(Nc4ccncc4)c3c2)cc1Cl` [compound 492, 6-(2-(3-Chloro-4-fluorophenyl)pyridin-3-yl)-N-(pyridin-4-yl)quinazolin-4-amine] was run?
The IC50 was 3.73 µM.

`Nc1ncnc2ccc(-c3cccnc3-c3ccc(F)c(C(F)(F)F)c3)cc12` [compound 476, 6-(2-(4-Fluoro-3-(trifluoromethyl)phenyl)pyridin-3-yl)quinazolin-4-amine] was tested. Which IC50 did it give?
Its IC50 is 2.76 µM.

`Cc1ccc(F)c(-c2ncccc2-c2ccc3ncc(C#N)n3c2)c1` [compound 624, 6-(2-(2-Fluoro-5-methylphenyl)pyridin-3-yl)imidazo[1,2-a]pyridine-3-carbonitrile] was tested. Which IC50 did it give?
Its IC50 is 0.161 µM.

Which IC50 does the source give for `Cc1cnc(-c2ccc(F)c(C)c2)c(-c2ccc3[nH]ncc3c2)c1` [Compound 11, 5-(2-(4-Fluoro-3-methylphenyl)-5-methylpyridin-3-yl)-1H-indazole] here?
Its IC50 is 0.595 µM.

For `OCc1cnc2ccc(-c3cccnc3-c3cccc(C4CC4)c3)cn12` [compound 567, (6-(2-(3-Cyclopropylphenyl)pyridin-3-yl)imidazo[1,2-a]pyridin-3-yl)methanol], which IC50 is on record?
Its IC50 is 0.225 µM.

How did the IC50 turn out when `CCCCNc1ncnc2ccc(-c3cccnc3-c3ccc(F)c(C)c3)cc12` [compound 403, N-Butyl-6-(2-(4-fluoro-3-methylphenyl)pyridin-3-yl)quinazolin-4-amine] was run?
The IC50 was 1.67 µM.

`Cc1cc(-c2ncccc2-c2ccc3ncnc(OCCCN4CCCC4=O)c3c2)ccc1F` [compound 431, 1-(3-((6-(2-(4-Fluoro-3-methylphenyl)pyridin-3-yl)quinazolin-4-yl)oxy)propyl)pyrrolidin-2-one] was tested. Which IC50 did it give?
Its IC50 is 0.374 µM.

With `Cc1cc(-c2ncc(NCc3ccc(C#N)cc3)cc2-c2ccc3ncsc3c2)ccc1F` [compound 309, 4-(((5-(Benzo[d]thiazol-6-yl)-6-(4-fluoro-3-methylphenyl)pyridin-3-yl)amino)methyl)benzonitrile] as the compound, how does the IC50 read?
The IC50 was 1.48 µM.

`COc1cc(-c2ncccc2-c2ccc3ncnc(N)c3c2)ccc1F` [compound 474, 6-(2-(4-Fluoro-3-methoxyphenyl)pyridin-3-yl)quinazolin-4-amine] was tested. Which IC50 did it give?
Its IC50 is 0.429 µM.

How did the IC50 turn out when `Fc1ccc(-c2ncccc2-c2ccc3[nH]ncc3c2)cc1F` [Compound 62, 5-(2-(3,4-Difluorophenyl)pyridin-3-yl)-1H-indazole] was run?
Its IC50 is 0.804 µM.

For `Cc1cccc(-c2ncccc2-c2ccc3nccn3c2)c1` [Compound 166, 6-(2-m-Tolylpyridin-3-yl)imidazo[1,2-a]pyridine], which IC50 is on record?
The IC50 was 0.109 µM.

With `Fc1cnc(-c2cc(Cl)c(F)cc2F)c(-c2ccn3ncnc3c2)c1` [compound 861, 7-(2-(5-Chloro-2,4-difluorophenyl)-5-fluoropyridin-3-yl)-[1,2,4]triazolo[1,5-a]pyridine] as the compound, how does the IC50 read?
The IC50 was 4.01 µM.

How did the IC50 turn out when `Cc1cc(-c2ncccc2-c2ccc3ncnc(OCCc4scnc4C)c3c2)ccc1F` [compound 445, 5-(2-((6-(2-(4-Fluoro-3-methylphenyl)pyridin-3-yl)quinazolin-4-yl)oxy)ethyl)-4-methylthiazole] was run?
The IC50 was 0.515 µM.
